{"source": "paper PMC8351955", "about": "“Targeting Mycobacterium tuberculosis response to environmental cues for the development of effective antitubercular drugs” (PLoS Biology, 2021)", "key": {"[1]": {"system": "CDC1551(rv2390c′::GFP) reporter Mtb strain, response to high [Cl−]", "test": "microbe, parasite or virus in culture", "format": "cell-based, Mycobacterium tuberculosis"}, "[2]": {"system": "CDC1551(rv1405c′::GFP) reporter Mtb strain", "test": "microbe, parasite or virus in culture", "format": "cell-based, Mycobacterium tuberculosis", "details": "for NPA - rv1405c'::GFP, average: Fig 1D"}, "[3]": {"system": "Mtb growth in J774 murine macrophage-like cells", "test": "microbe, parasite or virus in culture", "format": "cell-based, Mycobacterium tuberculosis", "details": "for NPI (Mtb growth in J774 cells), average: Fig 1F"}, "[4]": {"system": "Mtb growth in J774 macrophage-like cells", "test": "J774 infection in 96-well plates, mKO fluorescence 6 days post-infection", "format": "cell-based, Mycobacterium tuberculosis", "details": "6 days post-infection", "in_short": "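J774 cells infected with mKO-expressing log-phase Mtb (40 μl at OD600 = 0.2 per well) and treated with compound at 10 μM final (0.1% DMSO). mKO fluorescence (ex 543/em 565 nm) read at infection and 6 days later at 37 °C, 5% CO2; growth expressed relative to DMSO controls as 100%.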"}, "[5]": {"system": "WT Mtb (Erdman) in primary murine BMDMs", "test": "Primary murine bone marrow-derived macrophage infection, CFU", "format": "cell-based, Mycobacterium tuberculosis", "details": "10 μM; for CFU/ml in BMDMs, average: Fig 1I"}, "[6]": {"test": "Kinetic aqueous solubility", "format": "physicochemical", "details": "pH 7.4 phosphate buffered saline; read-out: kinetic aqueous solubility (S)", "procedure": "(§1) Assays examining mouse and human liver microsomal stability, kinetic aqueous solubility, mouse and human plasma protein binding and stability, and human cytochrome P450 inhibition characteristics of the compounds were run by BioDuro (San Diego, CA), using standard protocols as previously described [37]. hERG inhibition assays were also performed by BioDuro."}, "[7]": {"test": "Mouse liver microsomal stability", "format": "in vitro ADME", "details": "mouse liver microsomes; read-out: half-life (t1/2) in mouse liver microsomes", "procedure": "as §1"}, "[8]": {"test": "Pharmacokinetic assay, single oral dose in CD-1 mice", "format": "in vivo", "details": "female, mouse, plasma; CD-1 mice, single 5 mg/kg po dose; read-out: plasma AUC0–5h", "description": "Blood samples were collected in K2EDTA-coated tubes predose, 0.5, 1, 3, and 5 hours post-dose, placed on ice, and centrifuged to recover plasma. The recovered plasma was kept at −80°C as needed prior to analysis, which was performed as previously described. In brief, a Sciex Applied Biosystems Qtrap 4000 triple-quadrupole mass spectrometer coupled to an Agilent 1260 HPLC system was used for HPLC coupled to tandem mass spectrometry (LC–MS/MS) quantitative analysis of the samples, with chromatography attained using an Agilent Zorbax SB-C8 column (2.1 × 30 mm; particle size, 3.5 μm) and a reverse-phase gradient elution. The aqueous mobile phase consisted of Milli-Q deionized water with 0.1% formic acid (A), while the organic mobile phase was 0.1% formic acid in acetonitrile (B). The gradient setup was as follows: 5% to 90% B over 2 minutes, 1 minute at 90% B, then an immediate drop to 5% B and an additional 1 minute at 5% B. Quantification of molecules was carried out via multiple reaction monitoring of parent/daughter transitions in electrospray positive ionization mode, and sample analyses accepted if quality control and standard samples had concentrations within 20% of the nominal concentration. Preparation of compounds for generation of standard curves and quality control spiking solutions were performed as previously described. Data were processed using Analyst software (Version 1.6.2; Applied Biosystems Sciex, Framingham, MA)."}, "[9]": {"system": "CDC1551(rv2390c′::GFP) reporter Mtb strain", "details": "pH 7"}, "[10]": {"system": "CDC1551(rv2390c′::GFP) reporter Mtb strain", "test": "microbe, parasite or virus in culture", "details": "Mycobacterium tuberculosis, 216 h"}}, "note": "Where two headings read alike, the source gives them in different places.", "data": [{"smiles": "O=C(c1cnc2ccccn12)N1CCCC(CCc2cccc(C(F)(F)F)c2)C1", "note": "(stereo not shown) [C5, FC(F)(F)C1=CC=CC(CCC2CCCN(C2)C(=O)C2=CN=C3C=CC=CN23)=C1]", "values": [{"measurement": "NPA - rv2390c'::GFP, average", "setting": "[1]; 0.0390625 µM, Fig 1C", "value": 99.0333, "unit": "%"}, {"measurement": "NPA - rv2390c'::GFP, average", "setting": "[1]; 0.078125 µM, Fig 1C", "value": 96.3333, "unit": "%"}, {"measurement": "NPA - rv2390c'::GFP, average", "setting": "[1]; 0.15625 µM, Fig 1C", "value": 99.1, "unit": "%"}, {"measurement": "NPA - rv2390c'::GFP, average", "setting": "[1]; 0.3125 µM, Fig 1C", "value": 113.667, "unit": "%"}, {"measurement": "NPA - rv2390c'::GFP, average", "setting": "[1]; 0.625 µM, Fig 1C", "value": 116.667, "unit": "%"}, {"measurement": "NPA - rv2390c'::GFP, average", "setting": "[1]; 1.25 µM, Fig 1C", "value": 131.667, "unit": "%"}, {"measurement": "NPA - rv2390c'::GFP, average", "setting": "[1]; 2.5 µM, Fig 1C", "value": 132.333, "unit": "%"}, {"measurement": "NPA - rv2390c'::GFP, average", "setting": "[1]; 5 µM, Fig 1C", "value": 137, "unit": "%"}, {"measurement": "NPA - rv2390c'::GFP, average", "setting": "[1]; 10 µM, Fig 1C", "value": 131.333, "unit": "%"}, {"measurement": "NPA - rv2390c'::GFP, average", "setting": "[1]; 20 µM, Fig 1C", "value": 142.333, "unit": "%"}, {"measurement": "activity at 10 µM", "setting": "[1]; Mycobacterium tuberculosis, 144 h, pH 6.4, […], DMSO positive control = 100%, read-out: Primary screen rv2390c'::GFP NPA%", "value": 182, "unit": "%"}, {"measurement": "activity at 10 µM", "setting": "[1]; Mycobacterium tuberculosis, 144 h, 10 µM, pH 6.4, 250 mM NaCl, 6 days, read-out: rv2390c'::GFP validation assay NPA% at 10 µM compound", "value": "131 ± 9.8", "unit": "%"}, {"measurement": "activity at 20 µM", "setting": "[1]; Mycobacterium tuberculosis, 144 h, 20 µM, pH 6.4, 250 mM NaCl, 6 days, read-out: rv2390c'::GFP validation assay NPA% at 20 µM compound", "value": "142 ± 4.2", "unit": "%"}, {"measurement": "AC50", "setting": "[1]; Mycobacterium tuberculosis, 144 h, pH 6.4, 250 mM NaCl, 6 days, Fig 1C, read-out: AC50 (activatory concentration, 50%), rv2390c′::GFP", "value": 500, "unit": "nM"}, {"measurement": "NPA - rv1405c'::GFP, average", "setting": "[2]; 0.0390625 µM", "value": 91.05, "unit": "%"}, {"measurement": "NPA - rv1405c'::GFP, average", "setting": "[2]; 0.078125 µM", "value": 91.6, "unit": "%"}, {"measurement": "NPA - rv1405c'::GFP, average", "setting": "[2]; 0.15625 µM", "value": 98.45, "unit": "%"}, {"measurement": "NPA - rv1405c'::GFP, average", "setting": "[2]; 0.3125 µM", "value": 118, "unit": "%"}, {"measurement": "NPA - rv1405c'::GFP, average", "setting": "[2]; 0.625 µM", "value": 125, "unit": "%"}, {"measurement": "NPA - rv1405c'::GFP, average", "setting": "[2]; 1.25 µM", "value": 130, "unit": "%"}, {"measurement": "NPA - rv1405c'::GFP, average", "setting": "[2]; 2.5 µM", "value": 114.5, "unit": "%"}, {"measurement": "NPA - rv1405c'::GFP, average", "setting": "[2]; 5 µM", "value": 132.5, "unit": "%"}, {"measurement": "NPA - rv1405c'::GFP, average", "setting": "[2]; 20 µM", "value": 145.5, "unit": "%"}, {"measurement": "activity at 10 µM", "setting": "[2]; Mycobacterium tuberculosis, read-out: rv1405c'::GFP secondary assay NPA% at 10 µM compound", "value": "135 ± 14.8", "unit": "%"}, {"measurement": "activity at 20 µM", "setting": "[2]; Mycobacterium tuberculosis, read-out: rv1405c'::GFP secondary assay NPA% at 20 µM compound", "value": "147 ± 7", "unit": "%"}, {"measurement": "NPI (Mtb growth in J774 cells), average", "setting": "[3]; 0.078125 µM, 5 µM rifampicin = 100% inhibition", "value": -6.175, "unit": "%"}, {"measurement": "NPI (Mtb growth in J774 cells), average", "setting": "[3]; 0.15625 µM", "value": 0.5445, "unit": "%"}, {"measurement": "NPI (Mtb growth in J774 cells), average", "setting": "[3]; 0.3125 µM", "value": -0.235, "unit": "%"}, {"measurement": "NPI (Mtb growth in J774 cells), average", "setting": "[3]; 0.625 µM", "value": 9.79, "unit": "%"}, {"measurement": "NPI (Mtb growth in J774 cells), average", "setting": "[3]; 1.25 µM", "value": 32.35, "unit": "%"}, {"measurement": "NPI (Mtb growth in J774 cells), average", "setting": "[3]; 2.5 µM", "value": 39.55, "unit": "%"}, {"measurement": "NPI (Mtb growth in J774 cells), average", "setting": "[3]; 5 µM", "value": 48.4, "unit": "%"}, {"measurement": "NPI (Mtb growth in J774 cells), average", "setting": "[3]; 10 µM", "value": 50.85, "unit": "%"}, {"measurement": "NPI (Mtb growth in J774 cells), average", "setting": "[3]; 20 µM", "value": 55, "unit": "%"}, {"measurement": "inhibition at 10 µM", "setting": "[3]; Mycobacterium tuberculosis, J774, 144 h, read-out: J774 tertiary assay % inhibition compared to Rif at 10 µM compound", "value": "50.9 ± 3.2", "unit": "%"}, {"measurement": "inhibition at 20 µM", "setting": "[3]; Mycobacterium tuberculosis, J774, 144 h, read-out: J774 tertiary assay % inhibition compared to Rif at 20 µM compound", "value": "55 ± 5.8", "unit": "%"}, {"measurement": "% growth of Mtb in J774 cells, average", "setting": "[4]; 10 μM compound, DMSO = 100%, Fig 1H", "value": 37.9568, "unit": "%"}, {"measurement": "Inhibition of Mtb growth in J774 cells", "setting": "[4]; 10 μM", "value": "Mtb growth inhibition"}, {"measurement": "Effect on bacterial load / Mtb growth in primary murine BMDMs", "setting": "[5]; 8-day infection time course, vs DMSO", "value": "significant decrease in bacterial load"}, {"measurement": "CFU/ml in BMDMs, average", "setting": "[5]; day 2", "value": 152000, "unit": "CFU/ml"}, {"measurement": "CFU/ml in BMDMs, average", "setting": "[5]; day 4", "value": 191000, "unit": "CFU/ml"}, {"measurement": "CFU/ml in BMDMs, average", "setting": "[5]; day 6", "value": 264500, "unit": "CFU/ml"}, {"measurement": "CFU/ml in BMDMs, average", "setting": "[5]; day 8", "value": 318000, "unit": "CFU/ml"}, {"measurement": "solubility kinetic", "setting": "[6]", "value": 6.67, "unit": "µM"}, {"measurement": "half-life", "setting": "[7]", "value": 4.98, "unit": "min"}, {"measurement": "AUC(0-t)", "setting": "[8]", "value": 42, "unit": "ng·h/mL"}, {"measurement": "Ability to increase rv2390c′::GFP reporter signal in high [Cl−]", "setting": "[9]", "value": "increased rv2390c′::GFP reporter signal"}, {"measurement": "fold induction at 10 µM", "setting": "[10]; pH 7, read-out: Fold induction of rv2390c′::GFP reporter, average", "value": 6.34}, {"measurement": "fold induction at 10 µM", "setting": "[10]; read-out: Fold induction of rv2390c′::GFP reporter, average", "value": 5.92}]}]}
